Results published in patent US20220088199A1, “METHOD FOR PROTECTING GLYCEROL ALKYL ETHERS FROM OXIDATION” (SACHEM, INC., priority 2016, published 2022).
Values belong to the compound of their own block, whether it stands above or below them.

Columns and labels:
[1] = Stability testing of SASKINE50 blends at 50° C., analysed by GC (Example 2); conditions: for loss of SASKINE50 (3-[(2-ethylhexyl)oxy]-1,2-propanediol) assay on storage: one month, 725 ppm antioxidant in 99.6% pure SASKINE50, FIG. 3
Experimental: The blend is analyzed via gas chromatography (GC) prior to stability testing. Following the analysis result, the blend is placed under atmospheric pressure and under an inert gas into individual sample bottles as not to disturb the testing conditions during sampling. The test conditions are 50° C. for one month. […] These test conditions are considered to simulate a shelf-life of approximately one year at room temperature.
The samples are dissolved in isopropyl alcohol at a concentration of 10% for the GC analysis. The following GC conditions are used:
Column: • Material: fused silica WCOT • Length: 30 m • Internal diameter: 0.32 mm • Stationary phase: DB1701 • Film thickness: 1 μm • Gas regulation: Carrier gas: hydrogen • Make-up gas: helium • Temperatures: Detector: 300° C. • Injector: 275° C. • Start temperature: 115° C. • Warm up speed 1: 8° C./minute • End temperature: 210° C. • Warm up speed 2: 15° C./minute • End temperature: 275° C.
Detection: Type detector: FID

[2] = test system: microbial strain (bacteria, yeasts, molds); assay: Minimum inhibitory concentration (MIC) determination; format: cell-based; conditions: FIG. 7; compared to plain material and Sensiva
Experimental: As discussed in the background, the purpose of the glyceryl ether compounds such as SASKINE50™ and SASKINE80™ is as a preservative and antimicrobial, especially in cosmetics and pharmaceutical preparations. To test the SASKINE50™ and SASKINE80™, minimum inhibitory concentrations are determined for SASKINE50™ alone, SASKINE50™ with naringenin, SASKINE80™ alone, and SASKINE80™ with naringenin, and, for comparison, Sensiva® SC 50, which contains 3-[(2-ethylhexyl)oxy]-1,2-propanediol and synthetic alpha-tocopherol, which is commercially available from Schülke & Mayr Benelux B.V., 2032 HA-Haarlem, Netherlands. The determination of the minimal inhibitory concentration (MIC) is carried out according to the standard procedure described below.
The purpose of the MIC study is to find a minimum concentration of the test item which will enable to inhibit in vitro the growth of a microbial strain. The MIC characterizes the bacteriostatic or fungistatic effect of a product.
In the MIC test, the product is diluted according to a geometric progression of reason 2 over a range of at least 5 dilutions starting from the maximum concentration to be tested specified by the customer. In each tube of the dilution range, a cultured medium double concentered is included with the strains to be tested. […]

[3] = Stability testing of SASKINE80 blend at 50° C., analysed by GC (Example 3); format: physicochemical
Experimental: In this example, SACHEM's SASKINE80™ is used as basis for the stability testing of […] within the scope of the present invention, i.e., naringenin. A pre-defined blend containing SASKINE80™ and this anti-oxidant compound in accordance with the present invention are prepared, the blend containing 725 ppm of the naringenin in 99.6% pure SASKINE80™ (3-[(n-octyl)oxy]-1,2-propanediol). […] The test conditions are 50° C. for two weeks and four weeks.

[4] = Stability testing at room temperature: formation of formaldehyde and peroxides (Example 1); format: physicochemical; conditions: zero time
Excerpt: The thus-prepared compositions are subjected to stability testing, under which formation of formaldehyde and peroxides and determined as indicators of stability, in which higher amounts of formaldehyde and/or peroxides are deemed to show lower stability of the mixture. […] This sample is obtained commercially from Schulke GmbH. The tests for all samples determine the formaldehyde and peroxide contents of the test sample when stored at room temperature (RT), for periods of 0, 2, 4, 6, 8, 10 and 12 months. The 0 month sample is the freshly prepared composition.

[5] = test system: human reconstructed epidermis (SkinEthic model); assay: In vitro skin irritation study, SkinEthic model, OECD 439; format: cell-based; conditions: pure product applied 42 minutes, 42 hours incubation; MTT viability and IL1-α; FIG. 8
Experimental: As noted herein, the inventive compositions are intended for use in cosmetic and pharmaceutical compositions. One important criteria for such products is that there be no skin irritation, when the compositions are applied to the skin of the person using the cosmetic or pharmaceutical composition. To test the compositions of the present invention, a non-animal test is conducted, which is an in vitro skin irritation study of the compositions on human reconstructed epidermis known as the SkinEthic model, OECD 439. […] After the pure product has been applied to the epidermis for 42 minutes and they have been incubated for 42 hours post-treatment, cell viability is determined by measuring mitochondrial succinate dehydrogenase activity in living cells. […] A spectrophotometer is used to read the results after the crystals have been dissolved. The measured absorbances are proportional to the number of living cells. In addition, release of inflammation (IL1-α) mediators is measured by colorimeter if cell viability is over 50%. […] Cytotoxicity: absorbance is measured three times at 540 nm. The results are expressed as a viability percentage compared to a negative control: […]
IL1-α titration: IL1-α concentrations in the culture media are evaluated using the instructions on the titration kit and are expressed as pg/ml. […]

- loss of SASKINE50 (3-[(2-ethylhexyl)oxy]-1,2-propanediol) assay on storage [1]: performed less well
Compound: C[C@@H]1O[C@@H](O[C@H]2[C@H](Oc3cc(O)c4c(c3)O[C@H](c3ccc(O)cc3)CC4=O)O[C@H](CO)[C@@H](O)[C@@H]2O)[C@H](O)[C@H](O)[C@H]1O [naringin hydrate]

- loss of SASKINE50 (3-[(2-ethylhexyl)oxy]-1,2-propanediol) assay on storage [1]: almost no loss
Compound: O.O=c1c(O)c(-c2ccc(O)cc2O)oc2cc(O)cc(O)c12 [norinhydrate]

- loss of SASKINE50 (3-[(2-ethylhexyl)oxy]-1,2-propanediol) assay on storage [1]: almost no loss
Compound: COc1ccc(-c2cc(=O)c3c(O)cc(O)cc3o2)cc1O [diosmetin]

- loss of SASKINE50 (3-[(2-ethylhexyl)oxy]-1,2-propanediol) assay on storage [1]: almost no loss
Compound: COc1cc(O)c2c(=O)c(O)c(-c3ccc(O)c(O)c3)oc2c1 [rhamnetin]

The remaining lines, values behind:

Compound: O=c1c(O)c(-c2ccc(O)c(O)c2)oc2cc(O)cc(O)c12 [quercetin]
- loss of SASKINE50 (3-[(2-ethylhexyl)oxy]-1,2-propanediol) assay on storage [1]: almost no loss

Compound: CCCCCCCCOCC(O)CO (centres unmarked) [SASKINE80™, 3-[(n-octyl)oxy]-1,2-propanediol]
- minimum inhibitory concentration (anti-microbial growth) [2]: even better performance
- increase in low boiling compounds ([3]; two and four weeks, FIG. 5b): notable increase
- SASKINE80 assay decrease ([3]; two weeks and four weeks, FIG. 5a): about 0.40%

Compound: O=C1C[C@@H](c2ccc(O)cc2)Oc2cc(O)cc(O)c21 [naringenin]
- loss of SASKINE50 (3-[(2-ethylhexyl)oxy]-1,2-propanediol) assay on storage [1]: almost no loss

Compound: CCCCC(CC)COCC(O)CO (centres unmarked) [SASKINE50™, 3-[(2-ethylhexyl)oxy]-1,2-propanediol]
- increase in volatile degradation products (low boiling compounds) ([1]; 2 weeks and 4 weeks, 725 ppm antioxidant in SASKINE50, FIG. 4): significant amount of breakdown products
- loss of SASKINE50 (3-[(2-ethylhexyl)oxy]-1,2-propanediol) assay on storage [1]: significant loss
- peroxide present ([4]; Example 1, FIG. 1): measurable, non-zero amount
- formaldehyde present ([4]; Example 1, FIG. 2): measurable, non-zero amount
- skin irritation classification [5]: irritant of category 1 or 2
